Results reported in PMC6205224 (Molecular cell, 2018).
pIC50: −log10 of the molar value.

Tests used:
Mtb RNAP σ^A holoenzyme = Mtb RNAP σ^A holoenzyme (Mycobacterium tuberculosis, UniProt P9WGY7+P9WGY9); test: Fluorescence-detected RNAP-inhibition assay; assay type: biochemical
[1] = target: E. coli RNAP σ^70 holoenzyme (Escherichia coli, UniProt P0A8T7+P0A8V2); test: Fluorescence-detected RNAP-inhibition assay; assay type: biochemical
[2] = target: S. aureus RNAP σ^A holoenzyme (Staphylococcus aureus, UniProt P47768+Q2G0N5); test: Fluorescence-detected RNAP-inhibition assay; assay type: biochemical; details: Fig. S5
E. coli D21f2tolC [3] = assay type: cell-based, Escherichia coli; details: for cross-resistance of E. coli Lpm-resistant mutants to the compound: chromosomal Lpm-resistant mutants of E. coli D21f2tolC, Fig. 2D; for MICwild-type: wild-type E. coli D21f2tolC, LB broth, 16 h at 37°C, growth inhibited by ≥90%
RNAP clamp = details: interactions with SW1 and opposite face of SW2; ref Chakraborty et al., 2012; cited from earlier work
[4] = target: T. thermophilus RNAP σ^A holoenzyme (Thermus thermophilus, UniProt Q8RQE8+Q8RQE9); test: Fluorescence-detected RNAP-inhibition assay; assay type: biochemical
human RNAP I/II/III = test: Radiochemical RNAP-inhibition assay with HeLa nuclear extract; assay type: biochemical; details: Fig. S4C
E. coli D21f2tolC [5] = test: Checkerboard interaction assay; assay type: cell-based, Escherichia coli; details: combination of Lpm and Rif; checkerboard format; Fig. 2F
[6] = target: E. coli RNAP σ^70 holoenzyme (Escherichia coli, UniProt P0A8T7+P0A8V2, D284F/E106F); test: Single-molecule FRET of RNAP clamp conformation; assay type: biochemical; details: 20 μM Lpm; Fig. 4E-F
E. coli strain D21f2tolC = test: Colony formation on LB-agar plates containing Lpm; assay type: cell-based, Escherichia coli; details: 200 μg/ml ampicillin, 1 mM IPTG, 24-48 h at 37°C
[7] = in vivo; cited from earlier work

Compound: 4"-O-benzyl-Lpm [a1]
- potency in inhibiting Mtb RNAP relative to Lpm (Mtb RNAP σ^A holoenzyme): within approximately an order of magnitude of that of Lpm
- potency in inhibiting Escherichia coli RNAP relative to Lpm ([1]; Fig. S5): equal to that of Lpm
- potency in inhibiting S. aureus RNAP relative to Lpm [2]: within approximately an order of magnitude of that of Lpm

Compound: ONC(=Nc1ccccc1)c1cccc(C(F)(F)F)c1 [CBR, CBR703]
- cross-resistance of E. coli Lpm-resistant mutants to the compound (E. coli D21f2tolC [3]): Absence of significant cross-resistance
- MICwild-type (E. coli D21f2tolC [3]): 6.25 µg/mL

Compound: C/C=C/C/C=C(\C)C(O)CC/C(C)=C/C=C(\C)C(=O)c1c(O)cc([C@H](C)CC/C=C/NC(=O)OC)oc1=O (some centres unmarked) [Cor, corallopyronin]
- effect on RNAP clamp conformation (RNAP clamp): trap a closed-clamp state

Compound: CCc1c(Cl)c(O)c(Cl)c(O)c1C(=O)O[C@H]1[C@H](O)[C@H](OC)[C@H](OC/C2=C\C=C\C[C@H](O)/C(C)=C/[C@H](CC)[C@@H](O[C@@H]3OC(C)(C)[C@@H](OC(=O)C(C)C)[C@H](O)[C@@H]3O)/C(C)=C/C(C)=C/C[C@@H]([C@@H](C)O)OC2=O)O[C@@H]1C [Lpm, lipiarmycin A3]
- pIC50 [1]: 5.10
- pIC50 [4]: 3.70
- ability to inhibit human RNAP I, II, and III (human RNAP I/II/III): not human RNAP I, II, and III
- cross-resistance of E. coli Rif-, GE/PUM-, Sal-, CBR-, and Stl-resistant mutants to Lpm (E. coli D21f2tolC [3]; E. coli D21f2tolC derivatives, Fig. 2E): Absence of significant cross-resistance
- MICwild-type (E. coli D21f2tolC [3]): 1.56 µg/mL
- antibacterial interaction of Lpm and Rif when co-administered (E. coli D21f2tolC [5]): additive antibacterial activity
- effect on RNAP clamp conformation in solution [6]: traps the open-clamp state
- minimal concentration that prevents colony formation by wild-type transformants (E. coli strain D21f2tolC): 5 µg/mL
- systemic bioavailability [7]: no systemic bioavailability

Compound: NC(=O)CC[C@@H](C(=O)NC[C@H]1O[C@@H](c2c[nH]c(=O)[nH]c2=O)[C@H](O)[C@@H]1O)N(O)C(=O)CN=C(N)N [PUM, pseudoridimycin]
- cross-resistance of E. coli Lpm-resistant mutants to the compound (E. coli D21f2tolC [3]): Absence of significant cross-resistance
- MICwild-type (E. coli D21f2tolC [3]): 400 µg/mL

Compound: CO[C@H]1/C=C/O[C@@]2(C)Oc3c(C)c(O)c4c(O)c(c(/C=N/N5CCN(C)CC5)c(O)c4c3C2=O)NC(=O)/C(C)=C\C=C\[C@H](C)[C@H](O)[C@@H](C)[C@@H](O)[C@@H](C)[C@H](OC(C)=O)[C@@H]1C [Rif, rifampin]
- cross-resistance of E. coli Lpm-resistant mutants to the compound (E. coli D21f2tolC [3]): Absence of significant cross-resistance
- MICwild-type (E. coli D21f2tolC [3]): 0.20 µg/mL

Compound: C/C(=C\Cc1ccccc1)CCC(=O)C[C@H]1C[C@H](O)C/C(C)=C/C/C=C/C/C(CC(=O)O)=C\C(=O)O1 [Rip, ripostatin]
- effect on RNAP clamp conformation (RNAP clamp): trap a closed-clamp state

Compound: CNC(=O)[C@@H](C)[C@H]1C(=O)/C(=C(O)/C=C/C(C)=C/[C@@H](C)[C@H]2O[C@@]3(C)O[C@H](C=C[C@@]34CO4)[C@@H]2C)C(=O)N1[C@@H]1CC[C@H](O)[C@H](C)O1 [Stl, streptolydigin]
- cross-resistance of E. coli Lpm-resistant mutants to the compound (E. coli D21f2tolC [3]): Absence of significant cross-resistance
- MICwild-type (E. coli D21f2tolC [3]): 3.13 µg/mL

Compound: GE23077
- cross-resistance of E. coli Lpm-resistant mutants to the compound (E. coli D21f2tolC [3]): Absence of significant cross-resistance
- MICwild-type (E. coli D21f2tolC [3]): 500 µg/mL

Compound: myxopyronin
- cross-resistance of E. coli Lpm-resistant mutants to the compound (E. coli D21f2tolC [3]): Absence of significant cross-resistance
- MICwild-type (E. coli D21f2tolC [3]): 0.20 µg/mL
- effect on RNAP clamp conformation (RNAP clamp): trap a closed-clamp state

Compound: salinamide
- cross-resistance of E. coli Lpm-resistant mutants to the compound (E. coli D21f2tolC [3]): Absence of significant cross-resistance
- MICwild-type (E. coli D21f2tolC [3]): 0.049 µg/mL
